# Data: ChEMBL document CHEMBL1157260, “Cytotoxic diterpenes from Cassipourea madagascariensis from the Madagascar rainforest” (J Nat Prod, 2006)
# Tested on: A2780
# Assay: Cytotoxicity against human A2780 cells by clonogenic assay
# Format: functional, cell-based
row,Compound,IC50
1,C=C(CO)[C@@H]1CC[C@]2(C)CC[C@]3(C)[C@H](CC[C@@H]4[C@@]5(C)CCC(=O)C(C)(C)[C@@H]5CC[C@]43C)[C@@H]12,16.4 µg/mL
2,C=C(CO)[C@@H]1CC[C@]2(C)CC[C@]3(C)[C@H](CC[C@@H]4[C@@]5(C)CC[C@H](O)C(C)(C)[C@@H]5CC[C@]43C)[C@@H]12,12.2 µg/mL
3,C/C(=C\CO)CCCC(C)CC[C@H]1[C@@H](C)CCCC1(C)C (stereo not given in full) [CASSIPOUROL],2.4 µg/mL
4,CC(=O)OC/C=C(\C)CCCC(C)CC[C@H]1[C@@H](C)CCCC1(C)C (stereo not given in full) [CASSIPOURYL ACETATE],2.8 µg/mL
5,COc1cc(O)c2c(=O)c(OC)c(-c3cc(OC)c(OC)c(OC)c3)oc2c1 [COMBRETOL],8.7 µg/mL
